{
  "source": "BindingDB's records for doi:10.1016/j.ejmech.2020.112861",
  "about": "(Zhengzhou University, 2021)",
  "biological_target": "Bromodomain-containing protein 4 (Homo sapiens, UniProt O60885)",
  "assay": "Binding affinity to human BRD4 bromodomain1 by isothermal titration calorimetry",
  "data": [
    {"smiles": "Cc1noc(C)c1-c1ccc2c(c1)nc(CCc1ccccc1)n2CCN1CCOCC1", "values": [
      {"measurement": "Kd", "value": 950, "unit": "nM"}
    ]}
  ]
}
